Read-outs that look alike come from different tables or passages of the source.
Experiments:
[1] = DCM
ERAP1 = molecular target: T1, ERAP1 (Homo sapiens, UniProt Q9NZ08); assay: ERAP1 mediated hydrolysis of an amide substrate (10-mer inhibition assay), biochemical system; details: 10-mer substrate, incubated at 23° C. for 1 h, excitation 279 nm and emission 355 nm; read-out: IC50 vs Decapeptide WRVYEKC(Dnp)ALK-acid (where Dnp is Dinitrophenyl maleimide) (10-mer)
T1 construct: Purified ERAP1(37-941)-10His (ERAP1); 10His (C)
T1 sequence (Q9NZ08 37-941): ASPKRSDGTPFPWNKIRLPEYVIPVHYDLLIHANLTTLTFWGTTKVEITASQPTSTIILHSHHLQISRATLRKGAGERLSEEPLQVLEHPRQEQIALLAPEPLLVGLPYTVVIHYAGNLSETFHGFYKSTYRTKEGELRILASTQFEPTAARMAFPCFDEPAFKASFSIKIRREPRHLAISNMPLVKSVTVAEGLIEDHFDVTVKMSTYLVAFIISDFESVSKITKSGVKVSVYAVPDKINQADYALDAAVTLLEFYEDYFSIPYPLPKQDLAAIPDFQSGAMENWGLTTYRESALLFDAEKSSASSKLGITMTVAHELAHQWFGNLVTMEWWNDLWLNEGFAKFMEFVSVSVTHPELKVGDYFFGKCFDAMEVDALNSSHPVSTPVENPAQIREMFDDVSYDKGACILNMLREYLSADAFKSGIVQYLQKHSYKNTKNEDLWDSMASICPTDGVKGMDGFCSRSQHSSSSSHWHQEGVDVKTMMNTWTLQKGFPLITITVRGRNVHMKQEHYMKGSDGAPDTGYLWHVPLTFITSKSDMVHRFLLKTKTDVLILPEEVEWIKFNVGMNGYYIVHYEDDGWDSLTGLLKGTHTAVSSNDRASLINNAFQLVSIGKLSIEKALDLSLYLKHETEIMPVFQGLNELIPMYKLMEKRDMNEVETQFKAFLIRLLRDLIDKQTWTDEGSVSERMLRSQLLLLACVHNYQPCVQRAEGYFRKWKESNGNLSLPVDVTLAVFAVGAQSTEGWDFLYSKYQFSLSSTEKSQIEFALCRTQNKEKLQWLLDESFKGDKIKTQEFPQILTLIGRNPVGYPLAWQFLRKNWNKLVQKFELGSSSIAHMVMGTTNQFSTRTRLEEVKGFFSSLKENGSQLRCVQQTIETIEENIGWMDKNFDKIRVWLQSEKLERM
Procedure, shortened: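 Purified ERAP1(37-941)-10His in 25 mM Bis-tris propane, 0.05% HPMC, pH 7.75 was mixed with compound, then 240 μM L-AMC or 100 μM 10-mer WRVYEKC(Dnp)ALK (concentrations before mixing) was added, 1 h at 23 °C. 10-mer cleavage read as tryptophan fluorescence (ex 279/em 355 nm); L-AMC at ex 365/em 442 nm. IC50 from 4-parameter fit.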

| Compound | IC50 (ERAP1) [nM] | also measured |
| --- | --- | --- |
| methyl (E)-2-cyano-7,8,9,9a,10,13-hexahydro-6H, 20H-dibenzo[b,f]pyrido[1,2-h][1]oxa[4]thia[5,8]diazacyclotridecine-17-carboxylate 19,19-dioxide | – | ring closure, isolated yield ([1]; rcm bond, 13-membered ring, Hoveyda-Grubbs II (5 mol%), 50.2 mM): 66% |
| (E)-20-tert-butyl 17-methyl 2-(trifluoromethyl)-6,7,8,9,9a,10-hexahydrodibenzo[b,f]pyrido[1,2-h][1,4,5,8]oxathiadiazacyclotridecine-17,20(13H)-dicarboxylate 19,19-dioxide | – | ring closure, isolated yield ([1]; rcm bond, 13-membered ring, Hoveyda-Grubbs II (two portions), 42.3 mM, 35.0 °C): 33% |
| COC(=O)c1ccc2c(c1)S(=O)(=O)Nc1cc(C#N)c(Cl)cc1N1CCCC[C@@H]1CCCO2 | – | ring closure, isolated yield ([1]; from COC(=O)c1ccc(O)c(S(=O)(=O)Nc2cc(C#N)c(Cl)cc2N2CCCC[C@@H]2CCCO)c1, ether bond, 12-membered ring, PPh3/DIAD, 43.7 mM, 1.0 h): 22% |
| COC(=O)c1ccc2c(c1)S(=O)(=O)Nc1cc(C#N)c(Cl)cc1N1CCCC[C@H]1CCCO2 | – | ring closure, isolated yield ([1]; from COC(=O)c1ccc(O)c(S(=O)(=O)Nc2cc(C#N)c(Cl)cc2N2CCCC[C@H]2CCCO)c1, ether bond, 12-membered ring, PPh3/DIAD, 47.1 mM, 1.0 h): 23% |
| N#Cc1ccc2c(c1)NS(=O)(=O)c1cc(C(=O)O)ccc1OCCCC1CCCCN21 (single isomer, unassigned) [Example 9, 2-cyano-6,7,8,9,9a,10,11,12-octahydro-19H-dibenzo[b,f]pyrido[1,2-h][1]oxa[4]thia[5,8]diazacyclododecine-16-carboxylic acid 18,18-dioxide] | < 250 | – |
| CS(=O)(=O)c1cc2c(cc1F)N1CCCCC1CCCCOc1ccc(C(=O)O)cc1S(=O)(=O)N2 (single isomer, unassigned) [Example 44, 3-fluoro-2-(methylsulfonyl)-7,8,9,9a,10,11,12,13-octahydro-6H, 20H-dibenzo[b,f]pyrido[1,2-h][1]oxa[4]thia[5,8]diazacyclotridecine-17-carboxylic acid 19,19-dioxide] | 250 to 1000 | – |
| 3-chloro-2-(1H-tetrazol-1-yl)-7,8,9,9a,10,11,12,13-octahydro-6H, 20H-dibenzo[b,f]pyrido[1,2-h][1]oxa[4]thia[5,8]diazacyclotridecine-17-carboxylic acid 19,19-dioxide [Example 54] | < 250 | – |
| COC(=O)c1ccc2c(c1)S(=O)(=O)Nc1cc(C#N)c(Cl)cc1N1CCCCC1C=CCO2 (stereo not shown) | – | ring closure, isolated yield ([1]; from C=CCOc1ccc(C(=O)OC)cc1S(=O)(=O)Nc1cc(C#N)c(Cl)cc1N1CCCCC1C=C, rcm bond, 12-membered ring, Hoveyda-Grubbs II (2 x 5 mol%), 56.3 mM, 88.0 h): 25% |
| N#Cc1cc2c(cc1Cl)N1CCCC[C@H]1C/C=C/COc1ccc(C(=O)O)cc1S(=O)(=O)N2 [Example 61, (S,E)-3-chloro-2-cyano-7,8,9,9a,10,13-hexahydro-6H, 20H-dibenzo[b,f]pyrido[1,2-h][1]oxa[4]thia[5,8]diazacyclotridecine-17-carboxylic acid 19,19-dioxide] | < 250 | – |
| N#Cc1ccc2c(c1)NS(=O)(=O)c1cc(C(=O)O)ccc1OCC1CCCCN21 (single isomer, unassigned) [Example 10, 8-cyano-12,13,14,15,15a,16-hexahydro-6H-dibenzo[b,f]pyrido[1,2-h][1,4,5,8]oxathiadiazecine-3-carboxylic acid 5,5-dioxide] | < 250 | – |
| N#Cc1cc2c(cc1Cl)N1CCCC[C@H]1COCCOc1ccc(C(=O)O)cc1S(=O)(=O)N2 [Example 69, (S)-3-chloro-2-cyano-6,7,8,9,9a,10,12,13-octahydro-20H-dibenzo[e,i]pyrido[1,2-k][1,4]dioxa[7]thia[8,11]diazacyclotridecine-17-carboxylic acid 19,19-dioxide] | < 250 | – |
| COC(=O)c1ccc2c(c1)S(=O)(=O)Nc1cc(C#N)c(F)cc1N1CCCC[C@H]1CCCCO2 | – | ring closure, isolated yield ([1]; from COC(=O)c1ccc(O)c(S(=O)(=O)Nc2cc(C#N)c(F)cc2N2CCCC[C@H]2CCCCO)c1, ether bond, 13-membered ring, PPh3/DIAD, 31.7 mM, 1.0 h): 88% |
| CS(=O)(=O)c1cc2c(cc1F)N1CCCCC1CCCCOc1ccc(C(=O)O)cc1S(=O)(=O)N2 (single isomer, unassigned) [Example 43, 3-fluoro-2-(methylsulfonyl)-7,8,9,9a,10,11,12,13-octahydro-6H, 20H-dibenzo[b,f]pyrido[1,2-h][1]oxa[4]thia[5,8]diazacyclotridecine-17-carboxylic acid 19,19-dioxide] | < 250 | – |
| N#Cc1cc2c(cc1F)N1CCCCC1COc1ccc(C(=O)O)cc1S(=O)(=O)N2 (racemic) [Example 24, 8-cyano-9-fluoro-12,13,14,15,15a,16-hexahydro-6H-dibenzo[b,f]pyrido[1,2-h][1,4,5,8]oxathiadiazecine-3-carboxylic acid 5,5-dioxide] | < 250 | – |
| N#Cc1ccc2c(c1)NS(=O)(=O)c1cc(C(=O)O)ccc1OCC1CCCCN21 (single isomer, unassigned) [Example 11, 8-cyano-12,13,14,15,15a,16-hexahydro-6H-dibenzo[b,f]pyrido[1,2-h][1,4,5,8]oxathiadiazecine-3-carboxylic acid 5,5-dioxide] | 250 to 1000 | – |
| COC(=O)c1ccc2c(c1)S(=O)(=O)Nc1cc(C#N)c(Cl)cc1N1CCCC[C@H]1CC=CCO2 | – | ring closure, isolated yield ([1]; from C=CCOc1ccc(C(=O)OC)cc1S(=O)(=O)Nc1cc(C#N)c(Cl)cc1N1CCCC[C@H]1CC=C, rcm bond, 13-membered ring, Hoveyda-Grubbs II, 20.1 mM, 16.0 h): 81% |
